Measurements from PubChem BioAssay AID1919010 (Molecular Pharmacology Branch, DTP, NCI, 2023).

System: Hs578T complex spheroid growth, percent test/control
Assay: Anticancer human tumor Hs578T cell line growth inhibition [AhR];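 further: luminescent viability signal as a proxy for spheroid growth; spheroids exposed to agents for one week after three days of growth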
Details: for IC50: curve of first compound; for viability, T/C: stronger effect = lower value
In short: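 Spheroids combined tumor cells with HUVEC endothelial cells and human MSCs as stroma. AhR antagonists were paired with standard or investigational drugs, each dosed in half-log steps down from near clinical Cmax, or from 10 microM where Cmax was unknown.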

[1] = second compound 0.1 µM, first compound 0.0316 µM
[2] = second compound 0.1 µM, first compound 0.1 µM
[3] = second compound 0.1 µM, first compound 0.316 µM
[4] = second compound 0.1 µM, first compound 1 µM
[5] = second compound 0.1 µM, first compound 3.16 µM
[6] = second compound 0.1 µM, first compound 10 µM
[7] = second compound 0.316 µM, first compound 0.0316 µM
[8] = second compound 0.316 µM, first compound 0.1 µM
[9] = second compound 0.316 µM, first compound 0.316 µM
[10] = second compound 0.316 µM, first compound 1 µM
[11] = second compound 0.316 µM, first compound 3.16 µM
[12] = second compound 0.316 µM, first compound 10 µM
[13] = second compound 1 µM, first compound 0.0316 µM
[14] = second compound 1 µM, first compound 0.1 µM
[15] = second compound 1 µM, first compound 0.316 µM
[16] = second compound 1 µM, first compound 1 µM
[17] = second compound 1 µM, first compound 3.16 µM
[18] = second compound 1 µM, first compound 10 µM
[19] = second compound 3.16 µM, first compound 0.0316 µM
[20] = second compound 3.16 µM, first compound 0.1 µM
[21] = second compound 3.16 µM, first compound 0.316 µM
[22] = second compound 3.16 µM, first compound 1 µM
[23] = second compound 3.16 µM, first compound 3.16 µM
[24] = second compound 3.16 µM, first compound 10 µM
[25] = second compound 10 µM, first compound 0.0316 µM
[26] = second compound 10 µM, first compound 0.1 µM
[27] = second compound 10 µM, first compound 0.316 µM
[28] = second compound 10 µM, first compound 1 µM
[29] = second compound 10 µM, first compound 3.16 µM
[30] = second compound 10 µM, first compound 10 µM

CCc1c2c(nc3ccc(O)cc13)-c1cc3c(c(=O)n1C2)COC(=O)[C@]3(O)CC + Cc1ccccc1N=Nc1ccc(NC(=O)c2ccnn2C)c(C)c1
IC50 (second compound 0.1 µM): 84.6 nM | IC50 (second compound 0.316 µM): 130 nM | IC50 (second compound 1 µM): 68.7 nM | IC50 (second compound 3.16 µM): 39.1 nM | IC50 (second compound 10 µM): 8.73 nM | viability, T/C (second compound 0.1 µM, first compound 0.000949 µM): 77.4% | viability, T/C (second compound 0.1 µM, first compound 0.003 µM): 76.4% | viability, T/C (second compound 0.1 µM, first compound 0.00949 µM): 73.1% | viability, T/C (second compound 0.1 µM, first compound 0.03 µM): 57.9% | viability, T/C (second compound 0.1 µM, first compound 0.0949 µM): 50.8% | viability, T/C (second compound 0.1 µM, first compound 0.3 µM): 31.5% | viability, T/C (second compound 0.316 µM, first compound 0.000949 µM): 91% | viability, T/C (second compound 0.316 µM, first compound 0.003 µM): 78.4% | viability, T/C (second compound 0.316 µM, first compound 0.00949 µM): 72.1% | viability, T/C (second compound 0.316 µM, first compound 0.03 µM): 65.4% | viability, T/C (second compound 0.316 µM, first compound 0.0949 µM): 53% | viability, T/C (second compound 0.316 µM, first compound 0.3 µM): 41.5% | viability, T/C (second compound 1 µM, first compound 0.000949 µM): 72.8% | viability, T/C (second compound 1 µM, first compound 0.003 µM): 69.4% | viability, T/C (second compound 1 µM, first compound 0.00949 µM): 69.1% | viability, T/C (second compound 1 µM, first compound 0.03 µM): 60.9% | viability, T/C (second compound 1 µM, first compound 0.0949 µM): 45.7% | viability, T/C (second compound 1 µM, first compound 0.3 µM): 36.7% | viability, T/C (second compound 3.16 µM, first compound 0.000949 µM): 69.1% | viability, T/C (second compound 3.16 µM, first compound 0.003 µM): 73.8% | viability, T/C (second compound 3.16 µM, first compound 0.00949 µM): 62.5% | viability, T/C (second compound 3.16 µM, first compound 0.03 µM): 52% | viability, T/C (second compound 3.16 µM, first compound 0.0949 µM): 41.8% | viability, T/C (second compound 3.16 µM, first compound 0.3 µM): 31.9% | viability, T/C (second compound 10 µM, first compound 0.000949 µM): 60.4% | viability, T/C (second compound 10 µM, first compound 0.003 µM): 51.1% | viability, T/C (second compound 10 µM, first compound 0.00949 µM): 50.7% | viability, T/C (second compound 10 µM, first compound 0.03 µM): 46.3% | viability, T/C (second compound 10 µM, first compound 0.0949 µM): 34.7% | viability, T/C (second compound 10 µM, first compound 0.3 µM): 30.3%

Nc1ccccc1NC(=O)c1ccc(CNC(=O)OCc2cccnc2)cc1 + Cc1ccccc1N=Nc1ccc(NC(=O)c2ccnn2C)c(C)c1
IC50 (second compound 0.1 µM): 1320 nM | IC50 (second compound 0.316 µM): 1300 nM | IC50 (second compound 1 µM): 1480 nM | IC50 (second compound 3.16 µM): 1480 nM | IC50 (second compound 10 µM): 1320 nM | viability, T/C [1]: 100% | viability, T/C [2]: 90.9% | viability, T/C [3]: 85.2% | viability, T/C [4]: 62.2% | viability, T/C [5]: 16.1% | viability, T/C [6]: 0.74% | viability, T/C [7]: 100% | viability, T/C [8]: 86.2% | viability, T/C [9]: 82.5% | viability, T/C [10]: 62.1% | viability, T/C [11]: 16.4% | viability, T/C [12]: 1.06% | viability, T/C [13]: 97.6% | viability, T/C [14]: 95.2% | viability, T/C [15]: 95.5% | viability, T/C [16]: 66.4% | viability, T/C [17]: 17.6% | viability, T/C [18]: 1.6% | viability, T/C [19]: 89.5% | viability, T/C [20]: 79.6% | viability, T/C [21]: 93.3% | viability, T/C [22]: 66.2% | viability, T/C [23]: 16.9% | viability, T/C [24]: 1.24% | viability, T/C [25]: 61% | viability, T/C [26]: 62.5% | viability, T/C [27]: 64.9% | viability, T/C [28]: 59.5% | viability, T/C [29]: 19.6% | viability, T/C [30]: 1.69%

Nc1ccn(C2OC(CO)C(O)C2(F)F)c(=O)n1 (stereo not given) + Cc1ccccc1N=Nc1ccc(NC(=O)c2ccnn2C)c(C)c1
IC50 (second compound 0.1 µM): 4310 nM | IC50 (second compound 0.316 µM): 3740 nM | IC50 (second compound 1 µM): > 10000 nM | IC50 (second compound 3.16 µM): < 31.6 nM | IC50 (second compound 10 µM): < 31.6 nM | viability, T/C [1]: 55.6% | viability, T/C [2]: 48.1% | viability, T/C [3]: 52.5% | viability, T/C [4]: 49.2% | viability, T/C [5]: 54% | viability, T/C [6]: 47.9% | viability, T/C [7]: 54% | viability, T/C [8]: 44.9% | viability, T/C [9]: 53.9% | viability, T/C [10]: 49.8% | viability, T/C [11]: 49.9% | viability, T/C [12]: 50% | viability, T/C [13]: 61% | viability, T/C [14]: 52% | viability, T/C [15]: 49.1% | viability, T/C [16]: 46.9% | viability, T/C [17]: 48.1% | viability, T/C [18]: 56.8% | viability, T/C [19]: 48.7% | viability, T/C [20]: 47.3% | viability, T/C [21]: 47.4% | viability, T/C [22]: 47.9% | viability, T/C [23]: 45.9% | viability, T/C [24]: 44.6% | viability, T/C [25]: 45.1% | viability, T/C [26]: 46.1% | viability, T/C [27]: 35.6% | viability, T/C [28]: 36.2% | viability, T/C [29]: 37% | viability, T/C [30]: 41.4%

O=C(c1cc(Cc2n[nH]c(=O)c3ccccc23)ccc1F)N1CCN(C(=O)C2CC2)CC1 + Cc1ccccc1N=Nc1ccc(NC(=O)c2ccnn2C)c(C)c1
IC50 (second compound 0.1 µM): > 10000 nM | IC50 (second compound 0.316 µM): > 10000 nM | IC50 (second compound 1 µM): > 10000 nM | IC50 (second compound 3.16 µM): > 10000 nM | IC50 (second compound 10 µM): > 10000 nM | viability, T/C [1]: 96.8% | viability, T/C [2]: 104% | viability, T/C [3]: 109% | viability, T/C [4]: 101% | viability, T/C [5]: 96.9% | viability, T/C [6]: 80.9% | viability, T/C [7]: 101% | viability, T/C [8]: 107% | viability, T/C [9]: 100% | viability, T/C [10]: 101% | viability, T/C [11]: 88.2% | viability, T/C [12]: 72.1% | viability, T/C [13]: 104% | viability, T/C [14]: 109% | viability, T/C [15]: 104% | viability, T/C [16]: 99.6% | viability, T/C [17]: 104% | viability, T/C [18]: 81.3% | viability, T/C [19]: 96.9% | viability, T/C [20]: 97.7% | viability, T/C [21]: 94.9% | viability, T/C [22]: 96.8% | viability, T/C [23]: 85.9% | viability, T/C [24]: 72.3% | viability, T/C [25]: 66.8% | viability, T/C [26]: 70.7% | viability, T/C [27]: 76.5% | viability, T/C [28]: 69.3% | viability, T/C [29]: 67.6% | viability, T/C [30]: 63.5%
